Assay results taken from patent US12331026B2 (NiKang Therapeutics, Inc., priority 2022, dated 2025).

Target: T1, CDK2 (Homo sapiens, UniProt P24941)
T1 construct: endogenous in cells; host or cells: OVCAR3 cells
Assay: Phospho-RB measurement in OVCAR3 cells (HTRF phospho-RB S807/811)
Format: cell-based
Details: phosphorylation of RB protein at S807/811, HTRF, 24 h compound treatment, 0.3 to 10,000 nM, read-out: pRb (uM)
Experimental: The ability of compounds of Formula (I) to inhibit CDK2 was determined in OVCAR3 cells. Phosphorylation of RB protein at S807/811 were measured using HTRF phospho-RB cellular kits (Cat #64RBS807PEG) from Cisbio.
On Day 1, OVCAR3 cells were seeded into 96-well tissue-culture treated plates at 20,000 cells/well in 200 μL and incubated overnight at 37° C. in CO2 atmosphere. On Day 2, the cells were treated with test compounds at concentrations from 0.3 to 10,000 nM using HP D300 digital dispenser. Twenty-four hours after compound treatment, cell culture media was removed by flicking the plate and tapping the plate against clean paper towel. Immediately 30 μL 1× lysis buffer was supplemented from the kit and the plate was incubated at room temperature on shaker for 30 min. After homogenization by pipetting up and down, 8 μL cell lysate from 96-well cell culture plate was transferred to 384-well small volume white detection plate. 2 μL premixed detection solution was added and the plate was covered with sealer. To prepare the detection solution, d2 conjugated-phospho-RB antibody and Eu-cryptate conjugated phosphor-RB antibody were diluted into detection buffer following manufacturer's instruction.
Detection plates were incubated for 4 h at room temperature and read on ClarioStar (BMG Labtech) in TR-FRET mode ([…]). The TR-FRET ratio (665 nM1/620 nM) was plotted against the compound concentration and normalized to DMSO controls. Half maximal inhibition concentration (IC50) values are calculated with a four-parameter logistic fit using GraphPad Prism (version 8; La Jolla, CA).

Compound	IC50
O=S1(=O)CC2(CC(Nc3nccc(-c4sc(N5C6CCC5CN(C5CCOC5)C6)nc4-c4cccc(NS(=O)(=O)c5c(F)cccc5F)c4F)n3)C2)C1 (stereo not shown) [Example 44, N-(3-(5-(2-((2,2-dioxido-2-thiaspiro[3.3]heptan-6-yl)amino)-pyrimidin-4-yl)-2-(3-(tetrahydrofuran-3-yl)-3,8-diazabicyclo-[3.2.1]octan-8-yl)thiazol-4-yl)-2-fluorophenyl)-2,6-difluoro-benzenesulfonamide]	0.66 µM
O=S1(=O)CC(N2CC3CCC(C2)N3c2nc(-c3cccc(NS(=O)(=O)c4c(F)cccc4F)c3F)c(-c3ccnc(NC4CC5(C4)CS(=O)(=O)C5)n3)s2)C1 [Example 45, N-(3-(5-(2-((2,2-dioxido-2-thiaspiro[3.3]heptan-6-yl)amino)-pyrimidin-4-yl)-2-(3-(1,1-dioxidothietan-3-yl)-3,8-diazabicyclo[3.2.1]octan-8-yl)thiazol-4-yl)-2-fluorophenyl)-2,6-difluorobenzenesulfonamide]	4.14 µM
CC1(O)CC(N2CC3CCC(C2)N3c2nc(-c3cccc(NS(=O)(=O)c4c(F)cccc4F)c3F)c(-c3ccnc(NC4CC5(C4)CS(=O)(=O)C5)n3)s2)C1 (stereo not shown) [Example 46, N-(3-(5-(2-((2,2-dioxido-2-thiaspiro[3.3]heptan-6-yl)amino)-pyrimidin-4-yl)-2-(3-(3-hydroxy-3-methylcyclobutyl)-3,8-diazabicyclo[3.2.1]octan-8-yl)thiazol-4-yl)-2-fluorophenyl)-2,6-difluorobenzenesulfonamide]	1.36 µM
O=S1(=O)CC2(CC(Nc3nccc(-c4sc(C56CC(C5)C6)nc4-c4cccc(NS(=O)(=O)c5c(F)cccc5C(F)F)c4F)n3)C2)C1 [Example 47, N-(3-(2-(bicyclo[1.1.1]pentan-1-yl)-5-(2-((2,2-dioxido-2-thiaspiro[3.3]heptan-6-yl)amino)pyrimidin-4-yl)thiazol-4-yl)-2-fluorophenyl)-2-(difluoromethyl)-6-fluorobenzenesulfonamide]	0.05 µM
O=S1(=O)CC2CCC(C1)N2c1nc(-c2cccc(NS(=O)(=O)c3c(F)cccc3F)c2F)c(-c2ccnc(NC3CC4(C3)CS(=O)(=O)C4)n2)s1 [Example 48, N-(3-(5-(2-((2,2-dioxido-2-thiaspiro[3.3]heptan-6-yl)amino)-pyrimidin-4-yl)-2-(3,3-dioxido-3-thia-8-azabicyclo[3.2.1]octan-8-yl)thiazol-4-yl)-2-fluorophenyl)-2,6-difluorobenzenesulfonamide]	7.13 µM
CC1(C#N)CC(N2CC3CCC(C2)N3c2nc(-c3cccc(NS(=O)(=O)c4c(F)cccc4F)c3F)c(-c3ccnc(NC4CC5(C4)CS(=O)(=O)C5)n3)s2)C1 (stereo not shown) [Example 49, N-(3-(2-(3-(3-cyano-3-methylcyclobutyl)-3,8-diazabicyclo-[3.2.1]octan-8-yl)-5-(2-((2,2-dioxido-2-thiaspiro[3.3]heptan-6-yl)amino)pyrimidin-4-yl)thiazol-4-yl)-2-fluorophenyl)-2,6-difluorobenzenesulfonamide]	1.13 µM
O=S1(=O)CC2(CC(Nc3nccc(-c4sc(N5C6CCC5CN(C5CC(F)(F)C5)C6)nc4-c4cccc(NS(=O)(=O)c5c(F)cccc5C(F)F)c4F)n3)C2)C1 [Example 50, N-(3-(2-(3-(3,3-difluorocyclobutyl)-3,8-diazabicyclo[3.2.1]octan-8-yl)-5-(2-((2,2-dioxido-2-thiaspiro[3.3]heptan-6-yl)amino)pyrimidin-4-yl)thiazol-4-yl)-2-fluorophenyl)-2-(difluoromethyl)-6-fluorobenzenesulfonamide]	0.19 µM
CN1CC2CCC(C1)N2c1nc(-c2cccc(NS(=O)(=O)c3c(F)cccc3C(F)(F)F)c2F)c(-c2ccnc(NC3CC4(C3)CS(=O)(=O)C4)n2)s1 [Example 51, N-(3-(5-(2-((2,2-dioxido-2-thiaspiro[3.3]heptan-6-yl)amino)-pyrimidin-4-yl)-2-(3-methyl-3,8-diazabicyclo[3.2.1]octan-8-yl)thiazol-4-yl)-2-fluorophenyl)-2-fluoro-6-(trifluoromethyl)-benzenesulfonamide]	0.04 µM
O=S1(=O)CC2(CC(Nc3nccc(-c4sc(N5C6CCC5CN(C5CCC5)C6)nc4-c4cccc(NS(=O)(=O)c5c(F)cccc5F)c4F)n3)C2)C1 [Example 52, N-(3-(2-(3-cyclobutyl-3,8-diazabicyclo[3.2.1]octan-8-yl)-5-(2-((2,2-dioxido-2-thiaspiro[3.3]heptan-6-yl)amino)pyrimidin-4-yl)thiazol-4-yl)-2-fluorophenyl)-2,6-difluorobenzenesulfonamide]	0.08 µM
CC1CN(C)CC(C)N1c1nc(-c2cccc(NS(=O)(=O)c3c(F)cccc3F)c2F)c(-c2ccnc(NC3CC4(C3)CS(=O)(=O)C4)n2)s1 (stereo not shown) [Example 53, N-(3-(5-(2-((2,2-dioxido-2-thiaspiro[3.3]heptan-6-yl)amino)-pyrimidin-4-yl)-2-(2,4,6-trimethylpiperazin-1-yl)thiazol-4-yl)-2-fluorophenyl)-2,6-difluorobenzenesulfonamide]	0.04 µM
N#CC12CCC(CC1)N2c1nc(-c2cccc(NS(=O)(=O)c3c(F)cccc3F)c2F)c(-c2ccnc(NC3CC4(C3)CS(=O)(=O)C4)n2)s1 [Example 54, N-(3-(2-(1-cyano-7-azabicyclo[2.2.1]heptan-7-yl)-5-(2-((2,2-dioxido-2-thiaspiro[3.3]heptan-6-yl)amino)pyrimidin-4-yl)thiazol-4-yl)-2-fluorophenyl)-2,6-difluorobenzenesulfonamide]	0.2 µM
COc1cccc(F)c1S(=O)(=O)Nc1cccc(-c2nc(C34CC(C3)C4)sc2-c2ccnc(NC3CC4(C3)CS(=O)(=O)C4)n2)c1F [Example 55, N-(3-(2-(bicyclo[1.1.1]pentan-1-yl)-5-(2-((2,2-dioxido-2-thiaspiro[3.3]heptan-6-yl)amino)pyrimidin-4-yl)thiazol-4-yl)-2-fluorophenyl)-2-fluoro-6-methoxybenzenesulfonamide]	1.35 µM
C[C@@H]1COC[C@@H](C)N1c1nc(-c2cccc(NS(=O)(=O)c3c(F)cccc3F)c2F)c(-c2ccnc(NC3CC4(C3)CS(=O)(=O)C4)n2)s1 [Example 56, N-(3-(2-((3R,5R)-3,5-dimethylmorpholino)-5-(2-((2,2-dioxido-2-thiaspiro[3.3]heptan-6-yl)amino)pyrimidin-4-yl)thiazol-4-yl)-2-fluorophenyl)-2,6-difluorobenzenesulfonamide]	0.11 µM
COc1cccc(F)c1S(=O)(=O)Nc1cccc(-c2nc(N3C4CCC3CN(C)C4)sc2-c2ccnc(NC3CC4(C3)CS(=O)(=O)C4)n2)c1F [Example 57, N-(3-(5-(2-((2,2-dioxido-2-thiaspiro[3.3]heptan-6-yl)amino)-pyrimidin-4-yl)-2-(3-methyl-3,8-diazabicyclo[3.2.1]octan-8-yl)thiazol-4-yl)-2-fluorophenyl)-2-fluoro-6-methoxybenzenesulfonamide]	0.6 µM
O=S1(=O)CC2(CC(Nc3nccc(-c4sc(C56CC(C5)C6)nc4-c4cccc(NS(=O)(=O)c5c(F)cccc5OC(F)F)c4F)n3)C2)C1 [Example 58, N-(3-(2-(bicyclo[1.1.1]pentan-1-yl)-5-(2-((2,2-dioxido-2-thiaspiro[3.3]heptan-6-yl)amino)pyrimidin-4-yl)thiazol-4-yl)-2-fluorophenyl)-2-(difluoromethoxy)-6-fluorobenzenesulfonamide]	0.09 µM
C[C@@H]1CNC[C@@H](C)N1c1nc(-c2cccc(NS(=O)(=O)c3c(F)cccc3F)c2F)c(-c2ccnc(NC3CC4(C3)CS(=O)(=O)C4)n2)s1 [Example 59, N-(3-(2-((2R,6R)-2,6-dimethylpiperazin-1-yl)-5-(2-((2,2-dioxido-2-thiaspiro[3.3]heptan-6-yl)amino)pyrimidin-4-yl)thiazol-4-yl)-2-fluorophenyl)-2,6-difluorobenzenesulfonamide]	3.01 µM
C[C@@H]1CN(C)C[C@@H](C)N1c1nc(-c2cccc(NS(=O)(=O)c3c(F)cccc3F)c2F)c(-c2ccnc(NC3CC4(C3)CS(=O)(=O)C4)n2)s1 [Example 60, N-(3-(5-(2-((2,2-dioxido-2-thiaspiro[3.3]heptan-6-yl)amino)-pyrimidin-4-yl)-2-((2R,6R)-2,4,6-trimethylpiperazin-1-yl)thiazol-4-yl)-2-fluorophenyl)-2,6-difluorobenzenesulfonamide]	0.9 µM
C[C@@H]1CN(C2CC(F)(F)C2)C[C@@H](C)N1c1nc(-c2cccc(NS(=O)(=O)c3c(F)cccc3F)c2F)c(-c2ccnc(NC3CC4(C3)CS(=O)(=O)C4)n2)s1 [Example 61, N-(3-(2-((2R,6R)-4-(3,3-difluorocyclobutyl)-2,6-dimethylpiperazin-1-yl)-5-(2-((2,2-dioxido-2-thiaspiro[3.3]heptan-6-yl)amino)-pyrimidin-4-yl)thiazol-4-yl)-2-fluorophenyl)-2,6-difluoro-benzenesulfonamide]	0.34 µM
C[C@H]1CNC[C@H](C)N1c1nc(-c2cccc(NS(=O)(=O)c3c(F)cccc3F)c2F)c(-c2ccnc(NC3CC4(C3)CS(=O)(=O)C4)n2)s1 [Example 62, N-(3-(2-((2S,6S)-2,6-dimethylpiperazin-1-yl)-5-(2-((2,2-dioxido-2-thiaspiro[3.3]heptan-6-yl)amino)pyrimidin-4-yl)thiazol-4-yl)-2-fluorophenyl)-2,6-difluorobenzenesulfonamide]	3.86 µM
